According to patent publication US10131652B2, “Pyrimidinyloxy benzene derivatives as herbicides” (E. I. DU PONT DE NEMOURS AND COMPANY, priority 2014, dated 2018):
Like-named read-outs stand apart in the source and are kept apart here.

How the values were obtained:
Type in all cases: in vivo
corn (Zea mays) [1] = test: Test D pre-/postemergence plant response; conditions: Zea mays, pre-emergence, Preemergence, scale 0 to 100 (0 no effect, 100 complete control)
How it was run: (§1)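 Visual injury scoring (0–100) at 13 to 15 days in greenhouse. Preemergence sprays on seeded loam/sand; postemergence sprays on 1–4 leaf plants.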

[2] = tested on: ragweed (common ragweed, Ambrosia elatior); test: Test D pre-/postemergence plant response; conditions: Ambrosia artemisiifolia; for pest or weed control at 31 g/ha: 31 g ai/ha; for pest or weed control at 62 g/ha: 62 g ai/ha; for pest or weed control at 125 g/ha: 125 g ai/ha; for pest or weed control at 250 g/ha: 250 g ai/ha
How it was run: as §1

[3] = tested on: lambsquarters (Chenopodium album); test: Test D pre-/postemergence plant response; conditions: Chenopodium album; for pest or weed control at 31 g/ha: 31 g ai/ha; for pest or weed control at 62 g/ha: 62 g ai/ha; for pest or weed control at 125 g/ha: 125 g ai/ha; for pest or weed control at 250 g/ha: 250 g ai/ha
How it was run: as §1

[4] = tested on: pigweed (Amaranthus retroflexus); test: Test D pre-/postemergence plant response; conditions: Amaranthus retroflexus; for pest or weed control at 31 g/ha: 31 g ai/ha; for pest or weed control at 62 g/ha: 62 g ai/ha; for pest or weed control at 125 g/ha: 125 g ai/ha; for pest or weed control at 250 g/ha: 250 g ai/ha
How it was run: as §1

[5] = tested on: morningglory (Ipomoea coccinea); test: Test D pre-/postemergence plant response; conditions: Ipomoea; for pest or weed control at 31 g/ha: 31 g ai/ha; for pest or weed control at 62 g/ha: 62 g ai/ha; for pest or weed control at 125 g/ha: 125 g ai/ha; for pest or weed control at 250 g/ha: 250 g ai/ha
How it was run: as §1

[6] = tested on: barnyardgrass (Echinochloa crus-galli); test: Test B pre-/postemergence plant response; conditions: Echinochloa crus-galli, 240 h, read-out: Plant response rating, Barnyardgrass; for pest or weed control at 125 g/ha: 125 g ai/ha; for pest or weed control at 500 g/ha: 500 g ai/ha
How it was run: (§2)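 Seeds in loam–sand blend given preemergence soil spray; separately, plants at one- to two-leaf stage (2–10 cm) sprayed postemergence, compounds in non-phytotoxic solvent with surfactant. Injury rated visually versus untreated controls after ~10 days in greenhouse, 0 (no effect) to 100 (complete control).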

[7] = tested on: wheat (Triticum aestivum); test: Test B pre-/postemergence plant response; conditions: Triticum aestivum, 240 h, read-out: Plant response rating, Wheat; for plant injury at 125 g/ha: 125 g ai/ha; for plant injury at 500 g/ha: 500 g ai/ha
How it was run: as §2

[8] = tested on: giant foxtail (Setaria faberii); test: Test B pre-/postemergence plant response; conditions: Setaria faberi, 240 h, read-out: Plant response rating, Foxtail, Giant; for pest or weed control at 125 g/ha: 125 g ai/ha; for pest or weed control at 500 g/ha: 500 g ai/ha
How it was run: as §2

corn (Zea mays) [9] = test: Test B pre-/postemergence plant response; conditions: Zea mays, 240 h; for Corn plant response rating (crop injury, 0 = no effect, 100 = complete kill) at 125 g/ha: 125 g ai/ha; for Corn plant response rating (crop injury, 0 = no effect, 100 = complete kill) at 500 g/ha: 500 g ai/ha
How it was run: as §2

[10] = tested on: pigweed (Amaranthus retroflexus); test: Test B pre-/postemergence plant response; conditions: Amaranthus retroflexus, 240 h, read-out: Plant response rating, Pigweed; for pest or weed control at 125 g/ha: 125 g ai/ha; for pest or weed control at 500 g/ha: 500 g ai/ha
How it was run: as §2

[11] = post-emergence, Postemergence, scale 0 to 100, 0 no effect, 100 complete control, read-out: Plant response rating, Ragweed
[12] = pre-emergence, Preemergence, read-out: Plant response rating (scale 0 to 100), Ragweed
[13] = pre-emergence, Preemergence, scale 0 to 100 (0 no effect, 100 complete control), read-out: Plant response rating, Ragweed
[14] = post-emergence, Postemergence, scale 0 to 100, 0 no effect, 100 complete control, read-out: Plant response rating, Lambsquarters
[15] = pre-emergence, Preemergence, read-out: Plant response rating (scale 0 to 100), Lambsquarters
[16] = pre-emergence, Preemergence, scale 0 to 100 (0 no effect, 100 complete control), read-out: Plant response rating, Lambsquarters
[17] = post-emergence, Postemergence, scale 0 to 100, 0 no effect, 100 complete control, read-out: Plant response rating, Pigweed
[18] = pre-emergence, Preemergence, read-out: Plant response rating (scale 0 to 100), Pigweed
[19] = pre-emergence, Preemergence, scale 0 to 100 (0 no effect, 100 complete control), read-out: Plant response rating, Pigweed
[20] = post-emergence, Postemergence, scale 0 to 100, 0 no effect, 100 complete control, read-out: Plant response rating, Morningglory
[21] = pre-emergence, Preemergence, read-out: Plant response rating (scale 0 to 100), Morningglory
[22] = pre-emergence, Preemergence, scale 0 to 100 (0 no effect, 100 complete control), read-out: Plant response rating, Morningglory
[23] = post-emergence, postemergence, 0 to 100 scale, 0 no effect, 100 complete control
[24] = post-emergence, Postemergence, 0 to 100 scale (0 no effect, 100 complete control)
[25] = pre-emergence, Preemergence, 0 to 100 scale where 0 is no effect and 100 is complete control

## FC(F)c1cc(-c2ccccc2Oc2ncc(Br)cn2)no1 [Compound 62, 5-bromo-2-[2-[5-(difluoromethyl)-3-isoxazolyl]phenoxy]pyrimidine]
Corn (Zea mays) [1]; 31 g ai/ha
  Corn plant response rating (crop injury, 0 = no effect, 100 = complete kill) at 31 g/ha: 35%
Corn (Zea mays) [1]; 62 g ai/ha
  Corn plant response rating (crop injury, 0 = no effect, 100 = complete kill) at 62 g/ha: 30%
[2]; post-emergence, Postemergence, scale 0 to 100 (0 no effect, 100 complete control), read-out: Ragweed plant response rating
  pest or weed control at 31 g/ha: 65%
[2]; [11]
  pest or weed control at 62 g/ha: 60%
  pest or weed control at 125 g/ha: 65%
  pest or weed control at 250 g/ha: 85%
[2]; [12]
  pest or weed control at 125 g/ha: 75%
  pest or weed control at 250 g/ha: 85%
[2]; [13]
  pest or weed control at 31 g/ha: 0%
  pest or weed control at 62 g/ha: 65%
[3]; post-emergence, Postemergence, scale 0 to 100 (0 no effect, 100 complete control), read-out: Lambsquarters plant response rating
  pest or weed control at 31 g/ha: 98%
[3]; [14]
  pest or weed control at 62 g/ha: 98%
  pest or weed control at 125 g/ha: 100%
  pest or weed control at 250 g/ha: 100%
[3]; [15]
  pest or weed control at 125 g/ha: 98%
  pest or weed control at 250 g/ha: 100%
[3]; [16]
  pest or weed control at 31 g/ha: 100%
  pest or weed control at 62 g/ha: 95%
[4]; post-emergence, Postemergence, scale 0 to 100 (0 no effect, 100 complete control), read-out: Pigweed plant response rating
  pest or weed control at 31 g/ha: 98%
[4]; [17]
  pest or weed control at 62 g/ha: 100%
  pest or weed control at 125 g/ha: 100%
  pest or weed control at 250 g/ha: 100%
[4]; [18]
  pest or weed control at 125 g/ha: 100%
  pest or weed control at 250 g/ha: 100%
[4]; [19]
  pest or weed control at 31 g/ha: 100%
  pest or weed control at 62 g/ha: 100%
[5]; post-emergence, Postemergence, scale 0 to 100 (0 no effect, 100 complete control), read-out: Morningglory plant response rating
  pest or weed control at 31 g/ha: 85%
[5]; [20]
  pest or weed control at 62 g/ha: 95%
  pest or weed control at 125 g/ha: 95%
  pest or weed control at 250 g/ha: 98%
[5]; [21]
  pest or weed control at 125 g/ha: 98%
  pest or weed control at 250 g/ha: 100%
[5]; [22]
  pest or weed control at 31 g/ha: 25%
  pest or weed control at 62 g/ha: 55%
[6]; [23]
  pest or weed control at 125 g/ha: 90%
[6]; [24]
  pest or weed control at 500 g/ha: 100%
[6]; [25]
  pest or weed control at 125 g/ha: 80%
  pest or weed control at 500 g/ha: 100%
[7]; [23]
  plant injury at 125 g/ha: 0%
[7]; [24]
  plant injury at 500 g/ha: 30%
[7]; [25]
  plant injury at 125 g/ha: 20%
  plant injury at 500 g/ha: 30%
[8]; [23]
  pest or weed control at 125 g/ha: 80%
[8]; [24]
  pest or weed control at 500 g/ha: 90%
[8]; [25]
  pest or weed control at 125 g/ha: 100%
  pest or weed control at 500 g/ha: 100%
Corn (Zea mays) [9]; [23]
  Corn plant response rating (crop injury, 0 = no effect, 100 = complete kill) at 125 g/ha: 10%
Corn (Zea mays) [9]; [24]
  Corn plant response rating (crop injury, 0 = no effect, 100 = complete kill) at 500 g/ha: 50%
Corn (Zea mays) [9]; [25]
  Corn plant response rating (crop injury, 0 = no effect, 100 = complete kill) at 125 g/ha: 0%
  Corn plant response rating (crop injury, 0 = no effect, 100 = complete kill) at 500 g/ha: 20%
[10]; [23]
  pest or weed control at 125 g/ha: 100%
[10]; [24]
  pest or weed control at 500 g/ha: 100%
[10]; [25]
  pest or weed control at 125 g/ha: 100%
  pest or weed control at 500 g/ha: 100%
